According to publication PMC5513037, “Examining the influence of specificity ligands and ATP-competitive ligands on the overall effectiveness of bivalent kinase inhibitors” (Proteome Science, 2017):

Legend:
Experiment in all cases: KAM-matrix competition in K562 lysate;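 as to 0.001 uM KAM: median log10 fold change of treatment over DMSO control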;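 as to 0.01 uM KAM: median log10 fold change of treatment over DMSO control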;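 as to 0.1 uM KAM: median log10 fold change of treatment over DMSO control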;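 as to 1 uM KAM: median log10 fold change of treatment over DMSO control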;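 as to 10 uM KAM: median log10 fold change of treatment over DMSO control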
Assay type in all cases: binding
[1] = target: T1, IKBKE (Homo sapiens, UniProt Q14164)
T1 construct: endogenous in cells; host or cells: K562 cells (lysate)
T1 sequence (Q14164 1-716): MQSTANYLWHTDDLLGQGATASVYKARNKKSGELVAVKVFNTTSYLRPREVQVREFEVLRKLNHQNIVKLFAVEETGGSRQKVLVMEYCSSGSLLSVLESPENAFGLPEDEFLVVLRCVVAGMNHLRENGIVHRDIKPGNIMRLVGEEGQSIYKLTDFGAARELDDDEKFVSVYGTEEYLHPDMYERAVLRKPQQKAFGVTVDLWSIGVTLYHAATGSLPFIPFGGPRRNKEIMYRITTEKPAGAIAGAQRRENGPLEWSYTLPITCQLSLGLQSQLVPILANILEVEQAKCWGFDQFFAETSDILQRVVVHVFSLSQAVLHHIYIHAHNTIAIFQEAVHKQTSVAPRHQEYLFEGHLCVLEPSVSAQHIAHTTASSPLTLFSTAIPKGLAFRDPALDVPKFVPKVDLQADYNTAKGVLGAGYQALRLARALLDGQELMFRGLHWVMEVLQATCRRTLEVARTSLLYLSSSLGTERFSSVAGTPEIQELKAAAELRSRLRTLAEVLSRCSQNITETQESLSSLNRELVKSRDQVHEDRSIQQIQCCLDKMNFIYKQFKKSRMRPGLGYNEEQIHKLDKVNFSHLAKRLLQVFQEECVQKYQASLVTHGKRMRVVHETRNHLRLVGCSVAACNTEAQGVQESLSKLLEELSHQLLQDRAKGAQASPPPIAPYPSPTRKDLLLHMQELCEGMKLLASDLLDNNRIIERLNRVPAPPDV
Method: (§1) Supplement 12953_2017_125_MOESM1_ESM.zip/MS_Supp Info.xlsx, sheet "KAM" | column: 10 uM KAM; 1 uM KAM; 0.1 uM KAM; 0.01 uM KAM; 0.001 uM KAM; RB50

[2] = target: T2, PRKD3 (Homo sapiens, UniProt O94806)
T2 construct: endogenous in cells; host or cells: K562
T2 sequence (O94806 1-890): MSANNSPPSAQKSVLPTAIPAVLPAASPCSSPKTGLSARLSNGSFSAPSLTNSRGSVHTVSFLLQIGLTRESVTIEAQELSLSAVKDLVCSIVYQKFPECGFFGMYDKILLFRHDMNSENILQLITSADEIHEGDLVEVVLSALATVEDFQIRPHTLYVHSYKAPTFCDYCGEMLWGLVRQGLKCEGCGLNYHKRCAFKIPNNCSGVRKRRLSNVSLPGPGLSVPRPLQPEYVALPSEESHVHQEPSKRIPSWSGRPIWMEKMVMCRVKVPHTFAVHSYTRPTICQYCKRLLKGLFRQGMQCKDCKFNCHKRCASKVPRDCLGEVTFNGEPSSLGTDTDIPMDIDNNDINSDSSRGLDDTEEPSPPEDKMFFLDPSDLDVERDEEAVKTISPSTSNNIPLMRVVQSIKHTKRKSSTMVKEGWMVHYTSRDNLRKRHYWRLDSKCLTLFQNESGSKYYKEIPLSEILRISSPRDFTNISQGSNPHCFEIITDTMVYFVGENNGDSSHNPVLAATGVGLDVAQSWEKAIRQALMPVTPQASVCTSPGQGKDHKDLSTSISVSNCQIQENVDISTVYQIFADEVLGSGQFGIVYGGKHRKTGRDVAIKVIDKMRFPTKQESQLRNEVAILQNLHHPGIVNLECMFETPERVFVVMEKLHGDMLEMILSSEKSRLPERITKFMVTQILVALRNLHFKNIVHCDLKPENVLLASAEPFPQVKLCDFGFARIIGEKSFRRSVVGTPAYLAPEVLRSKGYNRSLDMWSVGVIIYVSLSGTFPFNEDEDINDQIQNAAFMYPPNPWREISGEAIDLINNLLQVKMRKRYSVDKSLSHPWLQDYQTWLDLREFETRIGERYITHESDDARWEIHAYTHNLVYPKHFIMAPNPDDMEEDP
Method: as §1

[3] = target: T3, TTN (Homo sapiens, UniProt Q8WZ42);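 as to 0.001 uM KAM: median log10 fold change of treatment over DMSO control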;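 as to 0.01 uM KAM: median log10 fold change of treatment over DMSO control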;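 as to 0.1 uM KAM: median log10 fold change of treatment over DMSO control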;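 as to 1 uM KAM: median log10 fold change of treatment over DMSO control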;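 as to 10 uM KAM: median log10 fold change of treatment over DMSO control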
T3 construct: endogenous in cells; host or cells: K562
Method: as §1

[4] = target: T4, MASTL (Homo sapiens, UniProt Q96GX5)
T4 construct: endogenous in cells; host or cells: K562 cell lysate
T4 sequence (Q96GX5 1-879): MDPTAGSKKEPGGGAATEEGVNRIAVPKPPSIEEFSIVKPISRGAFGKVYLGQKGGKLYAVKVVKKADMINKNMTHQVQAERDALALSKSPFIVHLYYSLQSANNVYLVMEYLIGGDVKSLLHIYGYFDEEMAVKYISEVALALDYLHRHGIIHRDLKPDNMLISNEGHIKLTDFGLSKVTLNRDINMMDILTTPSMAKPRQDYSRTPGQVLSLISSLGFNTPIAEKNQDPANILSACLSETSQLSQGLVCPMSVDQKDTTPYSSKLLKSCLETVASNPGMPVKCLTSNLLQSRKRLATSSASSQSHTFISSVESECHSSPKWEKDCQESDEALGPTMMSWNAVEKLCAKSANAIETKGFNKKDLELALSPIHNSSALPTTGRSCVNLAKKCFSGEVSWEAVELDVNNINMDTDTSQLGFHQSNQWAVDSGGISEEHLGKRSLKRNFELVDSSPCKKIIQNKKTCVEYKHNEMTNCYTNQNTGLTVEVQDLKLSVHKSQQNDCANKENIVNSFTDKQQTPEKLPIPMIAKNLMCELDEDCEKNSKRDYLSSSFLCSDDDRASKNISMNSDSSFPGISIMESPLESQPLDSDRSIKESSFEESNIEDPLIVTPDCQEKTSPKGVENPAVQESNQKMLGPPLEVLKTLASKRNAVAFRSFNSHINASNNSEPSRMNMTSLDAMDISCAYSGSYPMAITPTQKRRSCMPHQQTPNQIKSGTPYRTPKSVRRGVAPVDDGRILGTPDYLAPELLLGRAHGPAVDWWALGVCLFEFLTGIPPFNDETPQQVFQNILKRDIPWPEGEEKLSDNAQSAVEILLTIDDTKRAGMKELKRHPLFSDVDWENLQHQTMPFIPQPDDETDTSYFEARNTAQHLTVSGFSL
Method: as §1

[5] = read-out: RB50 (the source's name)

N#CCc1ccc(Nc2nc(NCCCN)cc(Nc3cc(C4CC4)[nH]n3)n2)cc1 [KAM]
median Log10 fold change ([1]; 0.001 uM KAM): -0.04139
median Log10 fold change ([1]; 0.01 uM KAM): -0.01605
median Log10 fold change ([1]; 0.1 uM KAM): -0.1319
median Log10 fold change ([1]; 1 uM KAM): -0.3552
median Log10 fold change ([1]; 10 uM KAM): -0.4826
IC50 [1, 5]: 823 nM
median Log10 fold change ([2]; 0.001 uM KAM): -0.02816
median Log10 fold change ([2]; 0.01 uM KAM): -0.02551
median Log10 fold change ([2]; 0.1 uM KAM): -0.171
median Log10 fold change ([2]; 1 uM KAM): -0.366
median Log10 fold change ([2]; 10 uM KAM): -0.539
IC50 [2, 5]: 633 nM
IC50 ([3]; KAM 0.001-10 uM, read-out: RB50 (the source's name)): > 10000 nM
0.001 uM KAM ([3]; relative to 0 uM KAM = 0): -0.03178
0.01 uM KAM ([3]; relative to 0 uM KAM = 0): 0.01596
0.1 uM KAM ([3]; relative to 0 uM KAM = 0): -0.008464
1 uM KAM ([3]; relative to 0 uM KAM = 0): 0.03427
10 uM KAM ([3]; relative to 0 uM KAM = 0): 0.01084
median Log10 fold change ([4]; 0.001 uM KAM): 0.009734
median Log10 fold change ([4]; 0.01 uM KAM): -0.004391
median Log10 fold change ([4]; 0.1 uM KAM): -0.2197
median Log10 fold change ([4]; 1 uM KAM): -0.3171
median Log10 fold change ([4]; 10 uM KAM): -0.3645
IC50 [4, 5]: 948 nM
